Laboratory results: patent US20230131899A1, “INHIBITORS OF MICROBIALLY INDUCED AMYLOID” (Axial Therapeutics, Inc., priority 2020, published 2023)
Read-outs that look alike come from different tables or passages of the source.

How the values were obtained:
human α-synuclein = target: T1, human α-synuclein (Homo sapiens, UniProt P37840); experiment: Cell-free Thioflavin T assay of α-synuclein aggregation (αSyn ThT Assay); assay type: biochemical; settings: αSyn 50 μM, compounds at 100 μM
T1 construct: the full-length gene for untagged human α-synuclein was inserted; made in house; host or cells: E. coli BL21(DE3), plasmid derived from pT7 or pET11a
Description: To assess the effects of compounds on aggregation of α-synuclein, a cell-free assay was performed using purified α-synuclein and Thioflavin T. In the assay, human α-synuclein was expressed in E. coli BL21(DE3) from a plasmid derived from pT7 or pET11a into which the full-length gene for untagged human α-synuclein was inserted. Cells were induced at OD600 0.6 with 0.8 mM IPTG for 4 hours, harvested by centrifugation and suspended in a volume of lysis buffer (10 mM Tris, pH 8.0, 1 mM EDTA, and 1 mM PMSF) equivalent to one-tenth the volume of culture and lysed by boiling for 20 minutes. Cell debris was pelleted by centrifugation, clarified lysate was treated with 10% streptomycin sulfate at 136 μL/mL followed by glacial acetic acid at 228 μL/mL, lysate was centrifuged, supernatant was transferred to a fresh tube and protein was precipitated via addition of an equal volume of saturated (100%) ammonium sulfate and incubated at 4° C. on a rocking shaker for 1 hour. The protein was pelleted via centrifugation and washed with an equal volume of 100 mM ammonium acetate in chilled ethanol, pelleted via centrifugation, washed twice with chilled ethanol, dried overnight, resuspended in 50 mM potassium phosphate buffer pH 7.3 or 10 mM Tris pH 7.4, and passed through a 50 kDa cut-off column. Immediately prior to use, the purified α-synuclein was filtered with a 0.2 μm nylon filter. The assay was conducted in 96-well black microplates with a single 1-2 mm glass bead in each well, 20-40 μM ThioflavinT, 1% DMSO, α-synuclein at 50 μM and compounds at 20-100 μM. Plates were sealed with sealing tape (ThermoFisher 232701), incubated at 37° C. in a Tecan Nano F200 plate reader with excitation at 438 nm using a 439 nm filter with a bandwidth of 8 nm, and emission at 495 nm with a 490 nm filter with a bandwidth of 10 nm. During the assay, plates were shaken continuously or were shaken for 999 seconds every 18 minutes. Readings were performed hourly for up to 73 hours. The effect of compounds on α-synuclein aggregation in the assay was determined with data at 36, 47, 48 or 72 hours or from the final timepoint of the assay, prior to or roughly near the time when ThT fluorescence plateaued in the vehicle control wells. The vehicle controls contained all components of the assay except compounds and represented the level of α-synuclein aggregation in the absence of an inhibitor or accelerator. Fluorescence values for each compound with α-synuclein were first adjusted by subtracting the average fluorescence of the compound in the absence of α-synuclein. These adjusted values were normalized by dividing them by the average fluorescence at the same timepoint in the vehicle control wells, and the average normalized fluorescence with the compound was expressed as a percentage of the average fluorescence observed in untreated controls. Percent inhibition of α-synuclein aggregation by a compound was determined by subtracting the percent average fluorescence with the compound relative to the average vehicle control from 100%. A higher positive percent inhibition reflects greater inhibition of α-synuclein aggregation, while a negative percent inhibition reflects potentiation of α-synuclein aggregation.
Alternate concentrations of Thioflavin T may be used in the assay and may affect the fluorescent signal and sensitivity of the assay. Alternate concentrations of α-synuclein may be used and such alterations may affect aggregation kinetics of α-synuclein in the assay. Alternate concentrations of compounds may be tested in the assay, and dose-responses may be evaluated. Additional reagents may be added to the assay which may affect aggregation kinetics of α-synuclein depending on their concentration, including detergents such as sodium dodecyl sulfate, sodium chloride, dithiotreitol, or bovine serum albumin. Shaking may be included at alternate intervals in the assay and may affect α-synuclein aggregation kinetics. […]

E. coli CsgA = target: T2, E. coli CsgA (Escherichia coli, UniProt P28307); experiment: In vitro ThioflavinT assay of CsgA aggregation (CsgA ThT Assay); assay type: biochemical; settings: CsgA 2 μM, white plates; for remaining activity at 25 µM: compound 25 μM; for remaining activity at 100 µM: compound 100 μM
T2 construct: made in house; host or cells: E. coli NEB 3016 slyD::kan, pET11d
T2 sequence (P28307 23-151): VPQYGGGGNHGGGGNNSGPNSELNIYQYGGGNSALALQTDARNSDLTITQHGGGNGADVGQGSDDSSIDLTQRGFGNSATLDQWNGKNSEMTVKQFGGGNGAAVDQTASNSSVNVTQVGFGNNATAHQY
Method in brief: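 Purified C-terminal His-tagged CsgA, monomerised by desalting and 30-kDa filtration, at 2-20 μM with 20-40 μM ThT in 50 mM potassium phosphate pH 7.3, 1% DMSO, compounds 3.125-200 uM; room temperature, fluorescence (ex 438/em 495 nm) read every 15 min. Background-subtracted signal expressed as percent inhibition versus vehicle at 6-6.5 or 8-9 h, or as percent control AUC.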

[1] = test system: CsgA gene expression (csgBAC promoter-GFP reporter) in E. coli UTI89; experiment: In vitro live cell fluorescent reporter assay of CsgA transcription (Reporter Assay); assay type: cell-based; settings: Escherichia coli
Method in brief: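 Compounds at 0.14–100 μM (1% DMSO final) incubated 20 h at 27 °C in YESCA broth with UTI89 carrying a single-copy GFP reporter under the csgBAC intergenic promoter region, inoculum OD600 0.003. Fluorescence normalized to vehicle wells gave IC50 and 50%-of-vehicle concentration; OD600 reduction >10% flagged growth impact.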

[2] = mean % inhibition of αSyn aggregation relative to DMSO control, read-out: αSyn ThT Assay % Inhibition
[3] = class symbol, read-out: αSyn ThT Assay % Inhibition (activity range)
[4] = read-out: CsgA ThT Assay (2 μM CsgA) % Control Bmax 25 μM, activity range, class symbol
[5] = read-out: CsgA ThT Assay (2 μM CsgA) % Control Bmax 25 μM, mean Bmax as percentage of DMSO control
[6] = read-out: CsgA ThT Assay (2 μM CsgA) % Control Bmax 100 μM, activity range, class symbol
[7] = read-out: CsgA ThT Assay (2 μM CsgA) % Control Bmax 100 μM, mean Bmax as percentage of DMSO control
[8] = read-out: Reporter Assay Abs IC50 (μM), median Abs IC50 in the CsgA reporter assay, N/A = maximum expression reduction is <50% of control
[9] = read-out: Reporter Assay Abs IC50, activity range, class symbol

| Compound | inhibition at 100 µM (human α-synuclein; [2]) [%] | inhibition at 100 µM (human α-synuclein; [3]) [%] | remaining activity at 25 µM (E. coli CsgA; [4]) [%] | remaining activity at 25 µM (E. coli CsgA; [5]) [%] | remaining activity at 100 µM (E. coli CsgA; [6]) [%] | remaining activity at 100 µM (E. coli CsgA; [7]) [%] | IC50 [1, 8] [µM] | IC50 [1, 9] [µM] |
| --- | --- | --- | --- | --- | --- | --- | --- | --- |
| O=C(O)C1CNS(=O)(=O)c2c(-c3cccc(C(F)(F)F)c3)c(Cc3cccc4ccccc34)cc(=O)n21 (racemic) [Compound 009, 8-(naphthalen-1-ylmethyl)-6-oxo-9-(3-(trifluoromethyl)phenyl)-3,4-dihydro-2H,6H-pyrido[1,2-e][1,2,5]thiadiazine-4-carboxylic acid 1,1-dioxide] | 28 | 11 to 30 | – | – | – | – | – | – |
| O=C(O)C1CS(=O)(=O)c2c(-c3cccc(C(F)(F)F)c3)c(Cc3cccc4ccccc34)cc(=O)n21 (racemic) [Compound 010, 7-(naphthalen-1-ylmethyl)-5-oxo-8-(3-(trifluoromethyl)phenyl)-2,3-dihydro-5H-thiazolo[3,2-a]pyridine-3-carboxylic acid 1,1-dioxide] | 13 | 11 to 30 | – | – | – | – | – | – |
| O=C(O)C1CS(=O)(=O)c2c(-c3cccc(C(F)(F)F)c3)c(Cc3cccc4ccccc34)cc(=S)n21 (racemic) [Compound 014, 7-(naphthalen-1-ylmethyl)-5-thioxo-8-(3-(trifluoromethyl)phenyl)-2,3-dihydro-5H-thiazolo[3,2-a]pyridine-3-carboxylic acid 1,1-dioxide] | 35 | 31 to 60 | – | – | – | – | – | – |
| CC(C)(C)c1ccc(CN2CC(C(=O)O)n3c2c(-c2cccc(C(F)(F)F)c2)c(Cc2cccc4ccccc24)c(Cl)c3=O)cc1 (stereo not shown) [Compound 208, 1-(4-(tert-butyl)benzyl)-6-chloro-7-(naphthalen-1-ylmethyl)-5-oxo-8-(3-(trifluoromethyl)phenyl)-1,2,3,5-tetrahydroimidazo[1,2-a]pyridine-3-carboxylic acid] | – | – | 31 to 60 | 46 | 11 to 31 | 25 | 1 | < 1.3 |
| O=C(O)c1c(Cc2cccc3ccccc23)c(-c2cccc(C(F)(F)F)c2)c2n(c1=O)C(C(=O)O)CN2Cc1ccccc1 (stereo not shown) [Compound 209, 1-benzyl-7-(naphthalen-1-ylmethyl)-5-oxo-8-(3-(trifluoromethyl)phenyl)-1,2,3,5-tetrahydroimidazo[1,2-a]pyridine-3,6-dicarboxylic acid] | – | – | > 60 | 81 | > 60 | 64 | 6.6 | 4.6 to 10 |
| O=C(O)C1CN(Cc2ccccc2)c2c(-c3cccc(C(F)(F)F)c3)c(Cc3cncc4ccccc34)c(Cl)c(=O)n21 (stereo not shown) [Compound 210, 1-benzyl-6-chloro-7-(isoquinolin-4-ylmethyl)-5-oxo-8-(3-(trifluoromethyl)phenyl)-1,2,3,5-tetrahydroimidazo[1,2-a]pyridine-3-carboxylic acid] | – | – | > 60 | 79 | > 60 | 61 | 2.5 | 1.3 to 4.5 |
| O=C(O)C1CN(Cc2ccccc2)c2c(-c3cccc(C(F)(F)F)c3)c(Cc3cccc4ncccc34)c(Cl)c(=O)n21 (stereo not shown) [Compound 211, 1-benzyl-6-chloro-5-oxo-7-(quinolin-5-ylmethyl)-8-(3-(trifluoromethyl)phenyl)-1,2,3,5-tetrahydroimidazo[1,2-a]pyridine-3-carboxylic acid] | – | – | > 60 | 85 | > 60 | 65 | 20.6 | > 10 |
| O=C(O)C1CN(Cc2ccccc2)c2c(-c3cccc(C(F)(F)F)c3)c(Cc3cccc4cnccc34)c(Cl)c(=O)n21 (stereo not shown) [Compound 212, 1-benzyl-6-chloro-7-(isoquinolin-5-ylmethyl)-5-oxo-8-(3-(trifluoromethyl)phenyl)-1,2,3,5-tetrahydroimidazo[1,2-a]pyridine-3-carboxylic acid] | – | – | > 60 | 64 | 31 to 60 | 56 | 13 | > 10 |
| O=C(O)C1CN(Cc2ccccc2)c2c(-c3cccc(C(F)(F)F)c3)c(Cc3cccc4cccnc34)c(Cl)c(=O)n21 (stereo not shown) [Compound 213, 1-benzyl-6-chloro-5-oxo-7-(quinolin-8-ylmethyl)-8-(3-(trifluoromethyl)phenyl)-1,2,3,5-tetrahydroimidazo[1,2-a]pyridine-3-carboxylic acid] | – | – | > 60 | 72 | 31 to 60 | 44 | 9.1 | 4.6 to 10 |
| O=C(O)C1CN(Cc2ccccc2)c2c(-c3cccc(C(F)(F)F)c3)c(Cc3ccccc3)c(Cl)c(=O)n21 (stereo not shown) [Compound 214, 1,7-dibenzyl-6-chloro-5-oxo-8-(3-(trifluoromethyl)phenyl)-1,2,3,5-tetrahydroimidazo[1,2-a]pyridine-3-carboxylic acid] | – | – | > 60 | 90 | > 60 | 84 | 1.8 | 1.3 to 4.5 |
| CC(C)(C)c1cccc(Cc2c(-c3cccc(C(F)(F)F)c3)c3n(c(=O)c2Cl)C(C(=O)O)CN3Cc2ccccc2)c1 (stereo not shown) [Compound 215, 1-benzyl-7-(3-(tert-butyl)benzyl)-6-chloro-5-oxo-8-(3-(trifluoromethyl)phenyl)-1,2,3,5-tetrahydroimidazo[1,2-a]pyridine-3-carboxylic acid] | – | – | > 60 | 97 | > 60 | 61 | 1.3 | 1.3 to 4.5 |
| O=C(O)C1CN(Cc2ccccc2)c2c(-c3cccc(C(F)(F)F)c3)c(CN3CCCc4ccccc43)c(Cl)c(=O)n21 (stereo not shown) [Compound 217, 1-benzyl-6-chloro-7-((3,4-dihydroquinolin-1 (2H)-yl)methyl)-5-oxo-8-(3-(trifluoromethyl)phenyl)-1,2,3,5-tetrahydroimidazo[1,2-a]pyridine-3-carboxylic acid] | – | – | > 60 | 65 | – | – | 1.1 | < 1.3 |
